Laboratory results taken from PMC4139355 (PLoS ONE, 2014).
Like-named read-outs stand apart in the source and are kept apart here.

How the values were obtained:
AZ-GR cells = assay: MTT cytotoxicity test in AZ-GR cells
Protocol: (§1) A stably transfected gene reporter cell line AZ-GR was used for assessment of GR transcriptional activity. A transiently transfected LS174T human colon adenocarcinoma cells were used for assessment of PXR transcriptional activity. […] The reporter plasmid was transiently transfected to LS174T cells by lipofection (FuGENE 6) with 300 ng/well of p3A4-luc reporter in 24-well plates. Cells were incubated for 24 h with tested compounds and/or vehicle (DMSO; 0.1% v/v), in the presence or absence of RIF (10 µM; LS174T cells) or DEX (100 nM; AZ-GR cells). After the treatments, cells were lysed and luciferase activity was measured. In parallel, cell viability was determined by conventional MTT test.
(§2) Model activator of GR was dexamethasone (DEX; 0.1 µM). Treatments were performed in triplicates. Upper panels: MTT test was performed and absorbance was measured at 540 nm. The data are the mean from experiments from three consecutive passages of cells and are expressed as a percentage of viability of control cells. The values of IC50 were calculated and are indicated in a figure. […] The data are the mean from experiments from four consecutive passages of cells and are expressed as a percentage of maximal induction attained by RIF. […] The data are the mean from experiments from four consecutive passages of cells and are expressed as a fold induction of luciferase activity over control cells.

LS174T cells = assay: MTT cytotoxicity test in LS174T cells; settings: for viability of LS174T cells (in words): MTT, 24 h, LAN up to 100 µM, OME up to 250 µM
Protocol: as §1
(§3) Gene reporter assays were performed in two different experimental layouts.
as §2, with “Treatments” for “Model activator of GR was dexamethasone (DEX; 0.1 µM). Treatments”

[1] = target: T1, glucocorticoid receptor GR (Homo sapiens, UniProt P04150); settings: AZ-GR cells, 24 h, agonist mode
T1 sequence (P04150 1-777): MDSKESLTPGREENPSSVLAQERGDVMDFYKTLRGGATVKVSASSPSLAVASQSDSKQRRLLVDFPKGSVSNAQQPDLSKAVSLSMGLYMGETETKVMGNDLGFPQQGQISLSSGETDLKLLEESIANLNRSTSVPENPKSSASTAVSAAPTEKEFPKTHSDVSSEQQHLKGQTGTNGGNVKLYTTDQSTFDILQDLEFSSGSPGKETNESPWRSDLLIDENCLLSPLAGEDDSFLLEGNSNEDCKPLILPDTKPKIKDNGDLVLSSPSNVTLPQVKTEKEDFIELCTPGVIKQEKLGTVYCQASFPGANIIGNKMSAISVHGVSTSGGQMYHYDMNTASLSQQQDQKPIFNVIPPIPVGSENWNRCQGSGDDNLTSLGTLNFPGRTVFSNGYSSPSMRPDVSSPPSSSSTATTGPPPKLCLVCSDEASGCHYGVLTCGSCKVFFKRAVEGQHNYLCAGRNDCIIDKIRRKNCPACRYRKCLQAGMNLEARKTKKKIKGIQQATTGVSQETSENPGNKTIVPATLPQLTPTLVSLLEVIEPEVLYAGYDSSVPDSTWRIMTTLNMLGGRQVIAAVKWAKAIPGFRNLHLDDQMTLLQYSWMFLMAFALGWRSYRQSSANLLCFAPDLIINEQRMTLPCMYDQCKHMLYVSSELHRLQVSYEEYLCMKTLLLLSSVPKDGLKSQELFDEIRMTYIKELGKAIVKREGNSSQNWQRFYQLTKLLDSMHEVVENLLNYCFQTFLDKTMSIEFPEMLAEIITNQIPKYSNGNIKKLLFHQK
Protocol: as §1, §2

[2] = test system: CYP3A4 protein in HepG2 cells; assay: CYP3A4 protein expression (Western blot) in HepG2 cells; settings: 48 h
Protocol: Total protein extracts were prepared as described elsewhere. SDS–PAGE gels (10%) were run on a BioRad apparatus according to the general procedure followed by the protein transfer onto PVDF membrane. The membrane was saturated with 5% non-fat dried milk for 1 h at room temperature. […] Chemiluminescent detection was performed using horseradish peroxidase-conjugated secondary antibodies (Santa Cruz Biotechnology) and Western blotting Luminol kit (Santa Cruz Biotechnology). The density of bands was measured by densitometry.
Density of bands was quantified by densitometry.

[3] = test system: CYP3A4 mRNA in primary human hepatocytes; parameters: method as in PMID 12695340; settings: 100 µM–200 µM OME; cited from earlier work
[4] = test system: CYP3A4-mediated luciferase activity in HepG2 cells; parameters: method as in PMID 12235278, PMID 20832446; settings: HepG2 cells reporter gene assay; cited from earlier work
[5] = MTT cytotoxicity test in AZ-GR cells; settings: human, AZ-GR cells (stably transfected GR gene reporter cell line), cytotoxicity in AZ-GR cells IC50, MTT, 24 h
Protocol: as §1, §2

[6] = target: T1, glucocorticoid receptor GR; assay: GR gene reporter assay in AZ-GR cells, antagonist mode with dexamethasone; assay type: cell-based; settings: in the presence of DEX 0.1 µM, 24 h, read-out: GR activation, antagonist mode IC50
Protocol: as §1, §2

[7] = MTT cytotoxicity test in LS174T cells; settings: human, LS174T cells
Protocol: as §1, §3
as §2, with “Treatments” for “Model activator of GR was dexamethasone (DEX; 0.1 µM). Treatments”

pregnane X receptor PXR = target: T2, pregnane X receptor PXR (Homo sapiens, UniProt O75469); assay: PXR gene reporter assay (p3A4-luc in LS174T cells), agonist mode
T2 sequence (O75469 1-434): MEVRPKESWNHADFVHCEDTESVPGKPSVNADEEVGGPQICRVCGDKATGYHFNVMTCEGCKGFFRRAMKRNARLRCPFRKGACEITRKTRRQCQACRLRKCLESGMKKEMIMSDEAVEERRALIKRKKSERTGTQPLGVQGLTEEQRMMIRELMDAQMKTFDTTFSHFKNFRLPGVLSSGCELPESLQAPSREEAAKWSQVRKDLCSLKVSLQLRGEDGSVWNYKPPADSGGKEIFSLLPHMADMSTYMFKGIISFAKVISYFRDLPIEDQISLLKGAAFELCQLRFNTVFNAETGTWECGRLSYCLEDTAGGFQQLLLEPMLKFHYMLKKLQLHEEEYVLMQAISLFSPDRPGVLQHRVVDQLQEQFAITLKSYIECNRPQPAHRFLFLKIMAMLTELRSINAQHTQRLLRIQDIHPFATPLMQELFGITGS
Protocol: as §1, §3
as §2, with “Treatments” for “Model activator of GR was dexamethasone (DEX; 0.1 µM). Treatments”

Question: With Cc1c(OCC(F)(F)F)ccnc1C[S+]([O-])c1nc2ccccc2[nH]1 (racemic) [rac-LAN, rac-lansoprazole] as the compound, how does the IC50 (AZ-GR cells) read?
Answer: Its IC50 is 200 ± 19.5 µM.

Question: And the IC50 (LS174T cells)?
Answer: The IC50 was > 100 µM.

Question: With COc1ccc2[nH]c([S+]([O-])Cc3ncc(C)c(OC)c3C)nc2c1 (racemic) [rac-OME, rac-omeprazole] as the compound, how does the IC50 (AZ-GR cells) read?
Answer: The IC50 was > 250 µM.

Question: What about the IC50 (LS174T cells) of the same compound?
Answer: Its IC50 is > 250 µM.

Question: Which “effect on basal activity of GR (in words)” value [1] does the source give for Cc1c(OCC(F)(F)F)ccnc1C[S+]([O-])c1nc2ccccc2[nH]1 (stereo not drawn) [LAN, lansoprazole] here?
Answer: Its value is “weak effects on basal activity of GR”.

Question: And the “induction of CYP3A4 protein (in words)” value [2]?
Answer: The value was “induced CYP3A4 protein”.

Question: And the “viability of LS174T cells (in words)” value (LS174T cells)?
Answer: Its value is “did not observe significant decline in viability”.

Question: For COc1ccc2[nH]c([S+]([O-])Cc3ncc(C)c(OC)c3C)nc2c1 (stereo not drawn) [OME, omeprazole], which “CYP3A4 mRNA expression induction” value [3] is on record?
Answer: Its value is 4 fold.

Question: What about the “induction of CYP3A4-mediated luciferase activity (in words)” value [4] of the same compound?
Answer: Its value is “showed an induction of CYP3A4-mediated luciferase activity”.

Question: What about the “viability of LS174T cells (in words)” value (LS174T cells) of the same compound?
Answer: The value was “did not observe significant decline in viability”.

Question: What does the source list for Cc1c(OCC(F)(F)F)ccnc1C[S@@+]([O-])c1nc2ccccc2[nH]1 [R-LAN, R-lansoprazole]?
Answer: IC50 at 24 h [5]: 184 ± 2.9 µM; IC50 [6]: ~100 µM; IC50 at 24 h [7]: > 100 µM

Question: What does the source list for COc1ccc2nc([S@+]([O-])Cc3ncc(C)c(OC)c3C)[nH]c2c1 [R-OME, R-omeprazole]?
Answer: IC50 (AZ-GR cells): > 250 µM; IC50 (LS174T cells): > 250 µM; PXR activation, agonist mode (in words) (pregnane X receptor PXR; 24 h, LS174T cells with p3A4-luc): strongly activated PXR in concentrations 100 µM and 250 µM; EC50 (pregnane X receptor PXR; read-out: PXR activation, agonist mode EC50, 24 h, LS174T cells with p3A4-luc, absence of RIF): 25.3 ± 3.1 µM

Question: With Cc1c(OCC(F)(F)F)ccnc1C[S@+]([O-])c1nc2ccccc2[nH]1 [S-LAN, S-lansoprazole] as the compound, how does the IC50 (AZ-GR cells) read?
Answer: The IC50 was 200 ± 6.5 µM.

Question: And the “induction of CYP3A4 protein (in words)” value [2]?
Answer: Its value is “strongest effects”.

Question: What about the IC50 (LS174T cells) of the same compound?
Answer: Its IC50 is > 100 µM.

Question: Which results are given for COc1ccc2nc([S@@+]([O-])Cc3ncc(C)c(OC)c3C)[nH]c2c1 [S-OME, S-omeprazole]?
Answer: IC50 at 24 h [5]: 214 µM; IC50 at 24 h [7]: > 250 µM; EC50 (pregnane X receptor PXR): 2 ± 0.6 µM; PXR activation, agonist mode (in words) (pregnane X receptor PXR; human, 24 h): activated PXR in concentrations 10 µM and 100 µM with drop of activation at 250 µM
